Measurements as given in patent publication US20020013362A1 (priority 2000, published 2002).

Columns and labels:
patients with melanoma [1] = conditions: cited from earlier work
[2] = test system: adult leukemia, solid tumors, and pediatric solid tumor patients; experiment: Earlier published trials of the Q4D paclitaxel schedule; type: in vivo, human; conditions: one patient with a recurrent large metastatic melanoma
From the text: An added benefit to this regimen includes a reduction in myelosupression. To this end, we devised the Q4 day (Q4D)×3 every 21-day treatment schedule which has the added value of increasing the dose intensity during each 21-day treatment period beyond that of the once every 21-day schedule (Ainsworth S. K., and Helson, L., U.S. Pat. No. 5,696,153 issued Dec. 9, 1997). […] During these trials an anecdotal twelve-month partial response in a patient with a recurrent large metastatic melanoma was observed. […]

metastatic melanoma = experiment: Phase II M D Anderson trial of paclitaxel Q4Dx3 every 21 days, tumor responses; type: in vivo, human
From the text: Cytokines and therapeutic agents which may be used include, for example, platinum compounds (e.g., spiroplatin, cisplatin, and carboplatin), thalidomide, methotrexate, adriamycin, mitomycin, ansamitocin, bleomycin, cytosine arabinoside, arabinosyl adenine, mercaptopolylysine, vincristine, busulfan, chlorambucil, melphalan (e.g., PAM, L-PAM or phenylalanine mustard), mercaptopurine, mitotane, carmustine, procarbazine hydrochloride dactinomycin (actinomycin D), daunorubicin hydrochloride, doxorubicin hydrochloride, taxol, mitomycin, plicamycin (mithramycin), aminoglutethimide, estramustine phosphate sodium, flutamide, leuprolide acetate, megestrol acetate, tamoxifen citrate, testolactone, trilostane, amsacrine (m-AMSA), asparaginase (L-asparaginase) Erwina asparaginase, etoposide (VP-16), interferon α-2a, interferon α-2b, teniposide (VM-26), vinblastine sulfate (VLB), vincristine sulfate, bleomycin, bleomycin sulfate, methotrexate, adriamycin, and arabinosyl; biological response modifiers such as muramyldipeptide, muramyltripeptide, microbial cell wall components, lymphokines (e.g., bacterial endotoxin such as lipopolysaccharide, macrophage activation factor), sub-units of bacteria (such as Mycobacteria, Corynebacteria), the synthetic dipeptide N-acetyl-muramyl-L-alanyl-D-isoglutamine; hormones such as growth hormone, melanocyte stimulating hormone, estradiol, beclomethasone dipropionate, betamethasone, betamethasone acetate and betamethasone sodium phosphate, vetamethasone disodium phosphate, vetamethasone sodium phosphate, cortisone acetate, dexamethasone, dexamethasone acetate, dexamethasone sodium phosphate, flunisolide, hydrocortisone, hydrocortisone acetate, hydrocortisone cypionate, hydrocortisone sodium phosphate, hydrocortisone sodium succinate, methylprednisolone, methylprednisolone acetate, methylprednisolone sodium succinate, paramethasone acetate, prednisolone, prednisolone acetate, prednisolone sodium phosphate, prednisolone tebutate, prednisone, triamcinolone, triamcinolone acetonide, triamcinolone diacetate, triamcinolone hexacetonide and fludrocortisone acetate; immunoadjuvants and cytokines may also be employed, including interleukins (e.g., IL-1, IL-2, IL-3, IL-6), leukemia inhibitory factor, interferons, such as INF-α, TGF-beta, erythropoietin, TNF, lymphotoxin, and thrombopoietin; thalidomide and/or other agents to inhibit the production and/or action of cytokine/growth factors such as M-α, IGF-1, EGF, TGF α, IL-1β, MGSA and bFGF in different cell types involved in tumor growth and/or angiogenesis of melanoma.

patients with melanoma [3] = test system: patients with melanoma
[4] = 17 patients, 90 mg/M^2 Q4 days x3

## CC(=O)O[C@H]1C(=O)[C@@]2(C)[C@H]([C@H](OC(=O)c3ccccc3)[C@]3(O)C[C@H](OC(=O)[C@H](O)[C@@H](NC(=O)c4ccccc4)c4ccccc4)C(C)=C1C3(C)C)[C@]1(OC(C)=O)CO[C@@H]1C[C@@H]2O [paclitaxel]
Patients with melanoma [1]; 24-hour infusion, 250 mg/M^2 once every three weeks (Legha 1990)
  partial responses in patients with melanoma: 3/25
Patients with melanoma [1]; Legha 1990
  paclitaxel dose a majority of the melanoma patients could tolerate: ≤ 200 mg/M^2
Patients with melanoma [1]; phase II, same schedule (24-hour infusion 250 mg/M^2 q3 weeks), 28 patients (Einzig 1988)
  objective responses: five
Patients with melanoma [1]; three 175 mg/M^2 doses given every 21 days (63-day period)
  maximum tolerated dose intensity under previous regimens: 525 mg/M^2
[2]
  duration of anecdotal partial response: twelve
Metastatic melanoma; Patient #1, after another two courses (four in all)
  tumor volume decrease: 83%
Metastatic melanoma; Patient #1, after two courses at 270 mg/M^2/course
  decrease in liver metastases volume: 41%
Metastatic melanoma; Patient #2, 270 mg/M^2/course
  decrease in lung metastases: 43%
  tumor control maintained, number of courses: eight
Metastatic melanoma; Patient #3, scapular primary, after 4 courses at 270 mg/M^2/course
  decrease in tumor volume: 39%
Metastatic melanoma; Patient #4, right calf primary, after 4 courses at 270 mg/M^2/course
  decrease in tumor volume: 15%
Metastatic melanoma; Patient #5, right heel mass, after 2 courses at 270 Mg/M^2/course
  decrease in tumor volume: 12%
Metastatic melanoma; Patient #6, during 4 courses at 270 mg/M^2/course
  clinical response: stable disease
Metastatic melanoma; Patient #7, ciliochoroidal primary, no previous chemotherapy, after 3 courses at 270 mg/M^2/course
  clinical response: stable disease
Metastatic melanoma; Patient #8, tumor of dorsum of right foot, previously treated, during two courses at 270 mg/M^2/course
  clinical response: stable disease
Metastatic melanoma; Patient #9, non-choroidal melanoma, no prior chemotherapy, during 6 courses at 270 mg/M^2/course
  clinical response: stable disease
Metastatic melanoma; interim analysis, first 21 patients, 90 mg/M^2/dose Q4D, advanced heavily pretreated melanoma
  objective responses, tumor reduction: greater than 50%
Metastatic melanoma; interim analysis, sustained over one month, additional two patients of first 21, 90 mg/M^2/dose Q4D
  reductions in hepatic tumor masses: 25-40%
Patients with melanoma [3]; 270 mg/M^2 per 21 days, Q4D schedule
  associated toxicity versus 200 mg/M^2 Q 21-day schedule: significantly less
Patients with melanoma [3]; [4]
  Grade 3 abdominal pain (sufficient to interfere with function): 3 patients
  Grade 3 anemia (between 6.5-7.9 grams/100 ml blood): 2 patients
  Grade 3 diarrhea (over 7-9 stools/day): 2 patients
  Grade 3 edema (>20% weight gain): 1 patient
  Grade 3 fatigue (objective weakness with impairment of function): 4 patients
  Grade 3 granulocytopenia (between 0.5-0.9x10^3/mm^3): 6 patients
  Grade 3 increased alkaline phosphatase levels (between 5.1-20xN): 2 patients
  Grade 3 toxicity, number of patients: 11 patients
  Grade 3 toxicity, number of times: 21 times
  Grade 4 BUN increase (greater than 10 times normal values): 1 patient
  Grade 4 granulocytopenia (less than 0.5x10^3/mm^3): 4 patients
  Grade 4 leukopenia (less than 1.0x10^3/mm^3): 2 patients
  Grade 4 toxicity, number of patients: 3 patients
Patients with melanoma [3]; Patient #2, eight courses at 270 mg/M^2/course
  major side effect: paresthesia
